Experimental data taken from patent US12473324B2, “Triazine-based amphiphilic compound and use thereof” (INDUSTRY-UNIVERSITY COOPERATION FOUNDATION HANYANG …, priority 2019, dated 2025).

Assays:
μ-opioid receptor (MOR) [1] = biological target: T1, μ-opioid receptor (MOR) (Mus musculus, UniProt P42866); conditions: LMNG not among the compounds of the described test; cited from earlier work
[2] = Solubility of detergent (Table 1); type: physicochemical
μ-opioid receptor (MOR) [3] = biological target: T1, μ-opioid receptor (MOR); experiment: MOR thermal stability test (CPM dye, melting point Tm); type: biochemical; conditions: 0.5 wt % compound, CPM fluorescence, 20° C. to 65° C.
Description: An N-[4-(7-diethylamino-4-methyl-3-coumarinyl)phenyl]maleimide (CPM) dye dissolved in DMSO (3 mg/ml) was diluted 40× in a buffer including 20 mM HEPES pH 7.5 and 150 mM NaCl. […] After 1 hour at room temperature, a compound was prepared at a final concentration of 0.5 wt % by diluting the receptor solution 2× in 20 mM HEPES pH 7.5, 150 mM NaCl. After […] of the diluted CPM dye was added thereto, the receptor stability of different compounds was measured by recording the fluorescence spectra (excitation 387 nm) every 5° C. from 20° C. to 65° C. while culturing at each temperature for 2 minutes. The melting point (Tm) was calculated by plotting the read value at 470 nm and fitting a non-linear regression curve using GraphPad Prism.

AtBOR1 = AtBOR1 (Arabidopsis thaliana, UniProt Q8VYR7); experiment: AtBOR1 thermal denaturation, CPM assay; type: biochemical; conditions: CMC+0.04 wt %, 40° C., 120 minutes
Chain of AtBOR1 (Q8VYR7 whole entry): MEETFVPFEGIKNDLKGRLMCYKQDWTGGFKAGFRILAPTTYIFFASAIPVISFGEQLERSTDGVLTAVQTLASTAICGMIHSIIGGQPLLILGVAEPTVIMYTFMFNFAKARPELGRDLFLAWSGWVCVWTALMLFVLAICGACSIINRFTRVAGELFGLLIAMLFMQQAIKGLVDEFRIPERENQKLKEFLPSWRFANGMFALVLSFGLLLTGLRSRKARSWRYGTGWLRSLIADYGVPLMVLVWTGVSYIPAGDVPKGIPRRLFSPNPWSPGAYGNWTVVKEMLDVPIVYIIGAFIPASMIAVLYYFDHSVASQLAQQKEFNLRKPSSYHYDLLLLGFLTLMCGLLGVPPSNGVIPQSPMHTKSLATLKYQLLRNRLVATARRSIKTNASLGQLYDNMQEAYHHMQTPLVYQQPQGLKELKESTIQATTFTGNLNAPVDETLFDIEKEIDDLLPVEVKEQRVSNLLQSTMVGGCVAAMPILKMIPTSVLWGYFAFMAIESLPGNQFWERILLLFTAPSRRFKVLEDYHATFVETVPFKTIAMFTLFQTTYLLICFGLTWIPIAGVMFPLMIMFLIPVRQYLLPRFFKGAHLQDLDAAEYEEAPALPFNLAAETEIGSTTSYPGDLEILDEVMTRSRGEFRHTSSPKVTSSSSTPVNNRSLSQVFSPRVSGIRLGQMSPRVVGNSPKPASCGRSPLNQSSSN
Description: CPM assay: AtBOR1 was concentrated to 10 mg/ml in a buffer (20 mM Tris-HCl (pH 7.5), 150 mM NaCl, 0.03% DDM) with a 100 kDa MWCO centrifugal filter, stored at −80° C. and thawed immediately prior to thermal stability analysis. […] A 7-diethylamino-3-(4′-maleimidylphenyl)-4-methylcoumarin (CPM) dye (Invitrogen) was dissolved in DMSO at 4 mg/ml, and was diluted 1:100 with a buffer (150 mM NaCl supplemented with 20 mM Tris-HCl (pH 7.5) and 0.03% DDM). After 3 μL of the CPM dye was added to each well in the dark, the plate was covered with a transparent lid and the cells were cultured at 40° C. for 120 minutes. Fluorescence emission was monitored every 5 minutes using SpectraMax M2 (Molecular Devices) with a […] of 387 nm and an emission wavelength of 463 nm. Fluorescence readings were normalized under the most unstable conditions to calculate the percentage of proteins that were relatively unfolded. Data was analyzed as a single exponential decay curve using GraphPad Prism 6.

[4] = Hydrodynamic radius (Rh) of micelles by dynamic light scattering (DLS); type: physicochemical; conditions: 1.0 wt % detergent
Description: A method of measuring the radius of micelle is not particularly limited, but a method widely known in the art may be used, and for example, the radius of micelle may be measured using a dynamic light scattering (DLS) experiment.
(§1) Specifically, the critical micelle concentrations (CMCs) were measured using a fluorescent dye, diphenylhexatriene (DPH), and the hydrodynamic radii (Rh) of micelles formed by each preparation (1.0 wt %) were determined by a dynamic light scattering (DLS) experiment. The measured results are shown in Table 1 compared to DDM which is an existing amphiphilic molecule (detergent).

[5] = system: leucine transporter (LeuT); experiment: LeuT structural stability: [3H]-Leu binding by scintillation proximity assay (SPA); type: biochemical, Aquifex aeolicus; conditions: CMC+0.04 wt % or CMC+0.2 wt %, room temperature, 13-day incubation, [3H]-Leu SPA
Description: Experiments were performed to measure the structural stability of the LeuT protein by TSMs, TTGs and TEMs. Each amphiphilic compound was used at a concentration of (a) CMC+0.04 wt % or (b) CMC+0.2 wt %, and the substrate binding properties of LeuT were measured using [^3H]-Leu via scintillation proximity assay (SPA). The measurement was performed at regular intervals over the course of a 13-day and 12-day incubation at room temperature, respectively.
Specifically, a wild-type leucine transporter (LeuT) derived from the thermophilic bacterium Aquifex aeolicus was purified by a previously described method (Nature 1998, 392, 353-358 by G. Deckert et al.). LeuT was expressed in E. coli C41 (DE3) transformed with pET16b encoding the C-terminal 8×His-tagged transporter (expression plasmids were provided from Dr E. Gouaux, Vollum Institute, Portland, Oregon, USA). In summary, after a bacterial membrane was isolated and solubilized in 1 wt % DDM, the protein was bound to Ni^2+-NTA resin (Life Technologies, Denmark), and eluted in 20 mM Tris-HCl (pH 8.0), 1 mM NaCl, 199 mM KCl, 0.05% (w/v) DDM and 300 mM imidazole. Then, the purified LeuT (0.5 mg/ml) was diluted with buffers supplemented with TSMs, TTGs, TEMs or DDM at a final concentration of CMC+0.04% (w/v) or CMC+0.2% (w/v) except for DDM and imidazole in the equivalent buffer described above. Protein samples were incubated at room temperature for 13 days, centrifuged at a specified time, and protein properties were confirmed by measuring [^3H]-Leucine binding ability using SPA. SPA was performed with 5 μL of each protein sample in a buffer containing 450 mM NaCl and each of TSMs and TEMs (or DDM). The SPA reaction was performed in the presence of 20 nM [^3H]-Leucine and 1.25 mg/ml copper chelate (His-Tag) YSi beads (PerkinElmer, Denmark). Overall [^3H]-Leucine coupling to each sample was measured using a MicroBeta liquid scintillation counter (Perkin Elmer).

BOR1-GFP fusion protein = experiment: AtBOR1 thermal stability, fluorescence size exclusion chromatography (FSEC); conditions: 1% detergent, heated at 47° C. for 10 minutes
Description: Fluorescence size exclusion chromatography (FSEC): BOR1 of Arabidopsis thaliana was expressed in Saccharomyces cerevisiae FGY217 cells as a fusion protein having a C-terminal GFP tag. The cells were grown in a URA medium supplemented with 0.1% glucose. Protein expression was induced by adding 2% galactose, and then the cells were cultured at 20° C. for 18 hours as previously described. The cells were collected and used to prepare a membrane. The membrane including the BOR1-GFP fusion protein was diluted as follows. […] Samples were cultured while shaking at 4° C. for 1 hour, and then insoluble materials were removed by centrifugation at 14,000 g and 4° C. for 1 hour. A supernatant including the solubilized protein sample was heated at 47° C. for 10 minutes. After additional centrifugation to remove large aggregates, a 200 μl aliquot of the sample was injected into a Superose 6 10/300 column equilibrated with 20 mm Tris (pH 7.5), 150 mm NaCl and 0.03% DDM. The GFP fluorescence of each fraction was read using an excitation wavelength of 470 nm and an emission wavelength of 512 nm.

[6] = Critical micelle concentration (CMC) by fluorescent dye diphenylhexatriene (DPH); type: physicochemical; conditions: DPH fluorescence
Description: A method of measuring the CMC is not particularly limited, but a method widely known in the art may be used, and for example, the CMC may be measured by a fluorescent staining method using diphenylhexatriene (DPH).
as §1

T1 sequence (P42866 whole entry): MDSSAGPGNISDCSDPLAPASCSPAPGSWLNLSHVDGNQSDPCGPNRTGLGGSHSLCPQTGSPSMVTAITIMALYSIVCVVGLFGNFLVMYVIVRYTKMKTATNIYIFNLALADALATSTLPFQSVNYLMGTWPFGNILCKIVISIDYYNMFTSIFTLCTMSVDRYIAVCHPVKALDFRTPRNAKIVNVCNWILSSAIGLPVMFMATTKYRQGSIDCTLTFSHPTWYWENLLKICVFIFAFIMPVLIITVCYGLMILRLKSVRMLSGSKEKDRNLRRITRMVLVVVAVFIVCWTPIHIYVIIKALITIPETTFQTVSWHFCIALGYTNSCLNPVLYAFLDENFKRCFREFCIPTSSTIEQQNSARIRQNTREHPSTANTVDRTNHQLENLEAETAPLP

| solubility [2] [%] | MOR melting point (Tm) (μ-opioid receptor (MOR) [3]) [°C] | ability to preserve AtBOR1 in the folded state (CPM) (AtBOR1) | Rh (nm) [4] [nm] | LeuT substrate binding properties over incubation [5] | CMC [6] [mM] | Compound | MOR melting point (Tm) of LMNG, comparison value (μ-opioid receptor (MOR) [1]) [°C] | AtBOR1 thermal stability by FSEC (protein peak vs aggregation peak) (BOR1-GFP fusion protein) |
| --- | --- | --- | --- | --- | --- | --- | --- | --- |
|  |  |  |  |  |  | CCCCCCCCCCC(CCCCCCCCCC)(CO[C@@H]1O[C@H](CO)[C@@H](O[C@H]2O[C@H](CO)[C@@H](O)[C@H](O)[C@H]2O)[C@H](O)[C@H]1O)CO[C@@H]1O[C@H](CO)[C@@H](O[C@H]2O[C@H](CO)[C@@H](O)[C@H](O)[C@H]2O)[C@H](O)[C@H]1O [LMNG] | 38.3 |  |
| ~5 | 48.0 | best performance | 4.5 ± 0.1 | best substrate binding activity | ~0.005 | CCCCCCCCCCOc1nc(OCCCCCCCCCC)nc(N(CCO[C@@H]2O[C@H](CO)[C@@H](O[C@H]3O[C@H](CO)[C@@H](O)[C@H](O)[C@H]3O)[C@H](O)[C@H]2O)CCO[C@@H]2O[C@H](CO)[C@@H](O[C@H]3O[C@H](CO)[C@@H](O)[C@H](O)[C@H]3O)[C@H](O)[C@H]2O)n1 [TEM-E10] |  | highly effective in maintaining the initial state of the protein |
